Structures are written as SMILES. Where two headings read alike, the source gives them in different places. Where only a bound is given, the exact number is not on record here.

One data set has as its target T1, LTB-4 receptor (Homo sapiens, UniProt Q15722).
T1 construct: Final neutrophil was dispersed to 3×10^7 cell/ml in HBSS media and used for measuring the antagonizing action for LTB-4 receptor; endogenous in cells; host or cells: neutrophils from human whole blood
Nature of the data set: Antagonizing action for LTB-4 receptor ([3H]-LTB-4 binding to human neutrophils). As to conditions: for inhibition at 0.01 µM: 10 nM, read-out: Degree of inhibition (%) 10 nM; for inhibition at 0.01 µM / inhibition at 0.1 µM / inhibition at 1 µM: inhibition of selective [3H]-LTB-4 binding, human neutrophils; for inhibition at 0.1 µM: 100 nM, read-out: Degree of inhibition (%) 100 nM; for inhibition at 1 µM: read-out: Degree of inhibition (%) 1 μM. The method, then:
Neutrophil was separated from whole blood of human by precipitation using "Dextran T-500", and by the inclined centrifugation with Ficoll/Paque (Pharmacia Co.) Boyum, Scan. J. Clin. Lab. Invest., 21 suppl.
Mixed erythrocyte was removed by hemolysis of hypotonic solution. Final neutrophil was dispersed to 3×10^7 cell/ml in HBSS media and used for measuring the antagonizing action for LTB-4 receptor.
0.5 nM of [^3 H]-LTB-4 (200 Ci/mmol), test sample to measure the antagonizing action for LTB-4 receptor, and cell dispersed in HBSS media was added to 12 mm×75 mm of polyethylene tube (final volume: 200 μl), and left in ice bath for 45 minutes.
To separate [^3 H]-LTB-4 bound to neutrophil and isolated [^3 H]-LTB-4 not bound to neutrophil, the above mixture was filtered through GF/C filter (made by Wattman Co.). Filter paper was washed with pH 7.4 of cold Tris-buffer solution (5 ml) for 3 times, dried, and measured radioactivity. The selective binding of LTB-4 to neutrophil can be detected by the difference between radioactivities without antagonist in case that LTB-4 was totally bound to neutrophil, and that LTB-4 was bound to neutrophil in addition of radioisotope-unlabeled LTB-4 1000 times.

For data set [1] the following is noted: reported in the literature; cited from earlier work.
In data set [2] the test system is cells of calvariae of fetal rat (bonelike nodule forming). Nature of the data set: Bonelike nodule forming in cultured fetal rat calvaria cells. Particulars: for Area of nodule (mm^2): control 0.12 ± 0.026; for Number of nodule (No.): control 10.04 ± 1.23. The data set is classed as cell-based. The method, then: Approximately 30 of calvariae of fetal rat, removed all the tissue, was dissolved in 5 ml sterilized colagenase (0.1%) and trypsin solution (0.05%) at 37° C. 20 Minutes after dissolving, the released cells were collected, and hereto was added fetal serum to the same amount. This procedure was carried out for 3-6 times in every 20 minutes to collect the isolated cells. Collected cells were separated by centrifugation ([…]) for 5 minutes and it was suspended in α-MEM media, containing 10% (v/v) fetal bovine serum. Collected cells were cultivated in petri dish for 2-3 days, then separated with trypsin, and it were placed in 96 wells to 2.0×10^3 cells/100 μl in each well.
After cultivating the cells for 2-3 days, the media were changed to 5% fetal calf serum, 150 μg/ml ascorbic acid and 5 mM β-glycerophosphate, plus or minus sample (HS-1141). The control was in wells without the sample, and this time was arbitrarily set as […]. Formed nodule was analyzed with image analyzer (Biorad Co., U.S.A.); camcorder (SONY Co.); and microscope (Leitz Co.).

T1 sequence (Q15722 whole entry): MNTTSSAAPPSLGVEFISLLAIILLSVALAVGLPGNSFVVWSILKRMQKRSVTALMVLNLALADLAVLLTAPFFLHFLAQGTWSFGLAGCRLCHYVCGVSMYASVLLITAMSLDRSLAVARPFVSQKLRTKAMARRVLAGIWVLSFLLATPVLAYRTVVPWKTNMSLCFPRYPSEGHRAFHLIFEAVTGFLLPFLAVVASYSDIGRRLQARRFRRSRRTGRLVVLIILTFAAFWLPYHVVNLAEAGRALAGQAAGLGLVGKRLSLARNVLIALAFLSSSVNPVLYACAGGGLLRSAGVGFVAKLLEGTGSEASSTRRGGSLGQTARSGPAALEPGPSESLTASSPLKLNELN

As usually defined, the IC50 is the concentration needed to halve the response being measured. One may read the inhibition as the percentage by which the read-out fell short of the control. With `COc1cc(C(=O)N(C(C)C)C(C)C)ccc1OCCCCCOc1ccc(C(=N)N)cc1` [CGS-25019C, reference compound], on LTB-4 receptor, the IC50 stood at 80 nM, the inhibition at 0.01 µM was determined as 11%, the inhibition at 0.1 µM turned out to be 68% and the inhibition at 1 µM turned out to be 97%. Also, the “toxicity to stimulate stomach and intestine” value in data set [1] is “toxicity to stimulate stomach and intestine”.
On to `COc1cc(C(=O)N(C(C)C)C(C)C)ccc1OCCCCCOc1ccc2c(N)noc2c1` [HS-1132, N,N-diisopropyl-4-[5-(3-aminobenzo[d]isoxazol-6-yloxy)pentoxy]-3-methoxybenzamide], for which, on LTB-4 receptor, the inhibition at 0.01 µM was less than 10%, the inhibition at 0.1 µM is 10% and the inhibition at 1 µM was 90%.
In the case of `COc1cc(C(=O)N(C(C)C)C(C)C)ccc1OCCCCOc1ccc2c(N)noc2c1` [HS-1141, N,N-diisopropyl-4-[4-(3-aminobenzo[d]isoxazol-6-yloxy)butoxy]-3-methoxybenzamide], the inhibition at 0.01 µM at LTB-4 receptor was 64%. The inhibition at 0.1 µM at LTB-4 receptor worked out at 95%. For the same compound, at LTB-4 receptor, the inhibition at 1 µM was found to be 99%. Moreover, at LTB-4 receptor (compared with known compound CGS-25019C), the “effect of antagonizing action for LTB-4 receptor compared with CGS-25019C” value is given as “better”. The IC50 on LTB-4 receptor (concentration of 50% of antagonizing in binding to receptor, read-out: IC50) amounted to 7 nM. Besides, the “Area of nodule (mm^2)” value in data set [2] (10-11 M) is recorded as 0.342 ± 0.065 mm^2; in data set [2] (10^-8 M), 0.273 ± 0.019 mm^2; in data set [2] (10^-9 M) it was 0.379 ± 0.068 mm^2; in data set [2] (10^-10 M), 0.320 ± 0.082 mm^2. In addition, the “Number of nodule (No.)” value in data set [2] (10-11 M) came to 25.67 ± 3.54 No; in data set [2] (10^-8 M), 22.80 ± 4.71 No; in data set [2] (10^-9 M), 24.00 ± 4.04 No; in data set [2] (10^-10 M), 19.40 ± 1.29 No. Moreover, the “increase of remodeling of bonelike nodule” value in data set [2] (from Table II, versus control) was more than 2 times.
Consider `COc1cc(C(=O)N(C(C)C)C(C)C)ccc1OCCCOc1ccc2c(N)noc2c1` [HS-1151, N,N-diisopropyl-4-[3-(3-aminobenzo[d]isoxazol-6-yloxy)propoxy]-3-methoxybenzamide], for which, at LTB-4 receptor, the inhibition at 0.01 µM is less than 10%, the inhibition at 0.1 µM was determined as 37% and the inhibition at 1 µM was found to be 92%.

(Values after patent US6150390A, “3-amino-1,2-benzoisoxazole derivatives, process for preparation, and use thereof” (Dong Wha Pharm. Ind. Co., Ltd., priority 1997, dated 2000).)
